According to the NIST ThermoML archive (doi:10.1021/je401120a):
± gives the expanded uncertainty stated by the source.

Experiment: refractive index (Na D-line) (dimensionless); xn = mol fraction of the nth substance listed
Settings: 101 kPa, Liquid, Standard Abbe refractometry

CCC[n+]1ccccc1.F[B-](F)(F)F [1-propylpyridinium tetrafluoroborate] + CO
refractive index
Settings	293.15 K	303.15 K	313.15 K	323.15 K
x1 = 0.0279	1.34377 ± 0.00042	1.3399 ± 0.00042	1.3361 ± 0.00042	1.33304 ± 0.00042
x1 = 0.0576	1.35657 ± 0.00041	1.35319 ± 0.00041	1.34994 ± 0.00041	1.34753 ± 0.00041
x1 = 0.0965	1.36988 ± 0.00041	1.36693 ± 0.00041	1.36409 ± 0.00041	1.36215 ± 0.00041
x1 = 0.1457	1.38283 ± 0.00041	1.38006 ± 0.00041	1.37759 ± 0.00041	1.37597 ± 0.00041
x1 = 0.1949	1.39301 ± 0.00042	1.3903 ± 0.00042	1.38806 ± 0.00042	1.38633 ± 0.00042
x1 = 0.2548	1.4028 ± 0.00042	1.40001 ± 0.00042	1.39755 ± 0.00042	1.39577 ± 0.00042
x1 = 0.3209	1.41121 ± 0.00043	1.40839 ± 0.00043	1.40578 ± 0.00043	1.40373 ± 0.00043
x1 = 0.3998	1.4189 ± 0.00044	1.41592 ± 0.00044	1.41304 ± 0.00044	1.41094 ± 0.00044
x1 = 0.496	1.42595 ± 0.00046	1.42315 ± 0.00046	1.42027 ± 0.00046	1.4177 ± 0.00046
x1 = 0.5983	1.43176 ± 0.00047	1.4289 ± 0.00047	1.42609 ± 0.00047	1.42341 ± 0.00047
x1 = 0.6901	1.43601 ± 0.00049	1.43321 ± 0.00049	1.43034 ± 0.00049	1.42772 ± 0.00049
x1 = 0.8007	1.44014 ± 0.00052	1.43738 ± 0.00052	1.43461 ± 0.00052	1.43193 ± 0.00052
x1 = 0.8821	1.44265 ± 0.00054	1.43997 ± 0.00054	1.43737 ± 0.00054	1.43464 ± 0.00054
x1 = 1	1.44588 ± 0.00057	1.44322 ± 0.00057	1.44057 ± 0.00057	1.43792 ± 0.00057
